± gives the expanded uncertainty stated by the source.
What was measured:
[1] = for mass density: 298.15 K, 101.33 kPa; for mass density / vapor or sublimation pressure: Liquid; for surface tension liquid-gas: 303.15 K, Maximal bubble pressure
[2] = refractive index (Na D-line) (dimensionless); conditions: 298.15 K; 101.33 kPa; Liquid; Standard Abbe refractometry
[3] = xn = mol fraction of the nth substance listed; conditions: 303.15 K, Maximal bubble pressure

COC(C)(C)C [2-methoxy-2-methylpropane]
mass density [1]: 735.45 ± 0.36 kg/m3
surface tension liquid-gas [1]: 18.7 ± 0.25 mN/m
vapor or sublimation pressure ([1]; 308.3 K): 50 ± 0.12 kPa
vapor or sublimation pressure ([1]; 319.39 K): 75 ± 0.13 kPa
vapor or sublimation pressure ([1]; 325.98 K): 94 ± 0.15 kPa
refractive index [2]: 1.36766 ± 0.00031

COC(C)(C)C [2-methoxy-2-methylpropane] + CCO
surface tension liquid-gas ([3]; x2 = 0.102): 18.39 ± 0.25 mN/m
surface tension liquid-gas ([3]; x2 = 0.212): 18.38 ± 0.25 mN/m
surface tension liquid-gas ([3]; x2 = 0.31): 18.54 ± 0.25 mN/m
surface tension liquid-gas ([3]; x2 = 0.408): 18.84 ± 0.25 mN/m
surface tension liquid-gas ([3]; x2 = 0.527): 19 ± 0.25 mN/m
surface tension liquid-gas ([3]; x2 = 0.623): 19.21 ± 0.25 mN/m
surface tension liquid-gas ([3]; x2 = 0.721): 19.56 ± 0.25 mN/m
surface tension liquid-gas ([3]; x2 = 0.826): 20.03 ± 0.25 mN/m

CCO [ethanol]
mass density [1]: 785.05 ± 0.31 kg/m3
surface tension liquid-gas [1]: 21.7 ± 0.26 mN/m
vapor or sublimation pressure ([1]; 310.89 K): 16.01 ± 0.08 kPa
vapor or sublimation pressure ([1]; 318.88 K): 24.01 ± 0.08 kPa
vapor or sublimation pressure ([1]; 323.51 K): 30.01 ± 0.09 kPa
vapor or sublimation pressure ([1]; 328.54 K): 38.01 ± 0.1 kPa
vapor or sublimation pressure ([1]; 332.24 K): 45.01 ± 0.11 kPa
vapor or sublimation pressure ([1]; 334.57 K): 50 ± 0.11 kPa
vapor or sublimation pressure ([1]; 335.05 K): 51.01 ± 0.11 kPa
vapor or sublimation pressure ([1]; 338.38 K): 59.01 ± 0.13 kPa
vapor or sublimation pressure ([1]; 341.01 K): 66.01 ± 0.14 kPa
vapor or sublimation pressure ([1]; 343.4 K): 73.01 ± 0.14 kPa
vapor or sublimation pressure ([1]; 344.02 K): 75 ± 0.15 kPa
vapor or sublimation pressure ([1]; 345.61 K): 80.01 ± 0.15 kPa
vapor or sublimation pressure ([1]; 347.66 K): 87.01 ± 0.16 kPa
vapor or sublimation pressure ([1]; 349.56 K): 94 ± 0.17 kPa
vapor or sublimation pressure ([1]; 349.58 K): 94.01 ± 0.17 kPa
vapor or sublimation pressure ([1]; 351.65 K): 102.07 ± 0.18 kPa
refractive index [2]: 1.36068 ± 0.00031

Source: the NIST ThermoML archive (doi:10.1021/je9004068)
